Several values for one entry are separate records, joined by “and”; a condition that tells them apart may be missing. Identical values can stand only once.
Key:
[1] = test system: CCR2 expressing cells (CD11b+Ly6c+ Hi) in peripheral blood; experiment: In vivo depletion assay, flow cytometry of peripheral blood (Example 201); parameters: species or system Human CCR2 (hCCR2) knock-in mice (C57 background); conditions: hCCR2 knock-in mice; IV 0.1 mpk compound + 10 mpk anti-cotinine antibody (SEQ ID NO: 13/14); peripheral blood at 48 hr
Method: Stock solution preparation: Stock solutions of compounds of Formula (I) were prepared at 20 mg/mL and 100 mg/mL in DMSO for PK/PD and dose tolerability studies respectively. Stock solutions were stored at −20° C. until further usage.
Formulations preparation: On the day of experiment, the stock solution of the compound of Formula (I) was removed from storage at −20° C. and thawed at room temperature. Anti-cotinine antibody having a heavy chain sequence of SEQ ID NO: 13 and a light chain sequence of SEQ ID NO: 14 (rabbit variable region sequence with mouse IgG2a Fc domain), if required was removed from storage at −80° C. and thawed at room temperature. Antibody vials were immediately transferred into wet ice after thawing. Compounds of Formula (I) were further diluted in DMSO as per experimental requirements.
Formulation composition: The formulation composition was Saline:DMSO:PBS. Saline was added based on the quantity required and then stock solution of the compound of Formula (I) prepared in DMSO, followed by addition of antibody in PBS. Formulations were incubated at room temperature for 30 minutes before administration to the mouse. DMSO was used at 1 to 2% (v/v) in the final formulation.
After bleeding, each mouse was sacrificed by cervical dislocation.
CCR2 depletion in peripheral blood was determined by flow cytometry. Briefly, peripheral blood was collected from all animals at the end of study termination and processed. Blood samples were lysed using 1× RBC Lysis buffer and the resulting cell pellet was washed twice in FACS buffer (HBSS containing 5% FBS). Cells were subjected to Fc blocking using mouse Fc block from Biolegend (Trustain, anti-mouse CD16/32, Cat: 101319) to block non-specific binding followed by surface staining for immune markers (CD45, CD3, CD11b, Ly6C, human CCR2). Surface staining was done for 30 minutes in ice and cells were washed twice to remove unbound antibodies. Cells were stained with 7AAD to determine viability and acquired on BD FACSVerse flow cytometer. Appropriate FMO controls and single-color controls were included in the experiment for gating and compensation respectively.
Percent depletion of CD11b+Ly6c+ Hi cells and CCR2 expression for the different treatment groups was determined.

[2] = molecular target: T1, CHOK1 cells engineered to overexpress human CCR2 (Homo sapiens, UniProt P41597); experiment: Antibody dependent cellular cytotoxicity (ADCC) reporter assay (Example 199); assay type: cell-based; conditions: with anti-cotinine antibody SEQ ID NO: 11/12; CHOK1-human CCR2 target cells, Jurkat FcγRIIIa NFAT-luciferase reporter cells; 12-18 hours; read-out: ADCC Reporter Assay pEC50 (converted)
T1 construct: expressed in transfected cells; host or cells: CHOK1 cells
How it was run: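 CHOK1-hCCR2 target cells are co-incubated for 12–18 h with Jurkat FcγRIIIa/NFAT-luciferase reporter cells, ARM compound (1 pM–10 μM) and anti-cotinine antibody with a DE-mutant human IgG1 Fc (0.01–200 μg/mL). Luminescence is expressed as signal:background against no-compound wells; EC50 comes from nonlinear fit and is reported as pEC50, averaged across runs.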

Row | SMILES | % Depletion of CCR2 expressing cells [1] [%] | EC50 [2]
1 | CN1C(=O)C[C@H](C(=O)NCCOCCOCCOCCOCCOCCOCCC(=O)N[C@@H]2C[C@H](NC(C)(C)C)CC[C@@H]2N2CC[C@H](Nc3ncnc4ccc(C(F)(F)F)cc34)C2=O)[C@H]1c1cccnc1 [Example 38] | 84.55 | 
2 | CN1C(=O)C[C@H](C(=O)NCCO[C@H]2CC[C@H](OCCCC(=O)N[C@H]3CC[C@H](C(=O)N[C@@H]4C[C@H](NC(C)(C)C)CC[C@@H]4N4CC[C@H](Nc5ncnc6ccc(C(F)(F)F)cc56)C4=O)CC3)CC2)[C@H]1c1cccnc1 [Example 10] |  | 3.16 nM
3 | CN1C(=O)C[C@H](C(=O)NCCOCCOCCOCCOCCOCCC(=O)N[C@@H]2C[C@H](NC(C)(C)C)CC[C@@H]2N2CC[C@H](Nc3ncnc4ccc(C(F)(F)F)cc34)C2=O)[C@H]1c1cccnc1 [Example 37] | 75 | 
4 | CC(C)N(C)[C@@H]1CC[C@H](N2CC[C@H](Nc3ncnc4ccc(C(F)(F)F)cc34)C2=O)[C@H](NC(=O)[C@H]2CC[C@H](NC(=O)CCCO[C@H]3CC[C@H](OCCNC(=O)[C@H]4CC(=O)N(C)[C@@H]4c4cccnc4)CC3)CC2)C1 [Example 1, (2S,3S)-N-(2-(((1R,4S)-4-(4-(((1R,4R)-4-(((1R,2S,5R)-5-(Isopropyl(methyl)amino)-2-((S)-2-oxo-3-((6-(trifluoromethyl)quinazolin-4-yl)amino)pyrrolidin-1-yl)cyclohexyl)carbamoyl)cyclohexyl)amino)-4-oxobutoxy)cyclohexyl)oxy)ethyl)-1-methyl-5-oxo-2-(pyridin-3-yl)pyrrolidine-3-carboxamide] |  | 3.25 nM and 6.61 nM

From patent US20250136722A1, “CYTOTOXICITY TARGETING CHIMERAS” (GLAXOSMITHKLINE INTELLECTUAL PROPERTY DEVELOPMENT LIMITED, priority 2021, published 2025)
